Experimental data published in patent US5217960A, “Erythromycin derivatives” (priority 1991, dated 1993).
In brackets after ≈: the same amount, converted by molar mass.

Assays:
Assay type in all cases: cell-based
[1] = test system: STREPTOCOCCUS PYOGENES 930 CONST; assay: In vitro antibacterial activity, agar dilution MIC; settings: S. pyogenes 930 CONST, BHI agar, 35-37° C., 20 to 24 hours, read-out: MIC
[2] = test system: STAPHYLOCOCCUS AUREUS A5177; assay: In vitro antibacterial activity, agar dilution MIC; settings: 24 h
ESCHERICHIA COLI H560 = assay: In vitro antibacterial activity, agar dilution MIC; settings: E. coli H560, BHI agar, 35-37° C., 20 to 24 hours, read-out: MIC
ESCHERICHIA COLI DC-2 = assay: In vitro antibacterial activity, agar dilution MIC; settings: E. coli DC-2, BHI agar, 35-37° C., 20 to 24 hours, read-out: MIC
PSEUDOMONAS CEPACIA 296I = assay: In vitro antibacterial activity, agar dilution MIC; settings: Burkholderia cepacia; P. cepacia 296I; BHI agar, 35-37° C., 20 to 24 hours; read-out: MIC
[3] = test system: STAPHYLOCOCCUS AUREUS 642A; assay: In vitro antibacterial activity, agar dilution MIC; settings: 24 h
STR[…] 508 = assay: In vitro antibacterial activity, agar dilution MIC; settings: Streptococcus agalactiae, 24 h
Description: (§1) Representative compounds of the present invention were assayed in vitro for antibacterial activity as follows: Twelve petri dishes containing successive aqueous dilutions of the test compound mixed with 10 ml of sterilized Brain Heart Infusion (BHI) agar (Difco 0418-01-5) were prepared. Each plate was inoculated with 1:100 (or 1:10 for slow-growing strains, such as Micrococcus and Streptococcus) dilutions of up to 32 different microorganisms, using a Steers replicator block. The inoculated plates were incubated at 35°-37° C. for 20 to 24 hours. In addition, a control plate, using BHI agar containing no test compound, was prepared and incubated at the beginning and end of each test.
(§2) An additional plate containing a compound having known susceptibility patterns for the organisms being tested and belonging to the same antibiotic class as the test compound was also prepared and incubated as a further control, as well as to provide test-to-test comparability. Erythromycin A was used for this purpose.
(§3) After incubation, each disk was read. The minimum inhibitory concentration (MIC) was defined as the lowest concentration of drug yielding no growth, a slight haze, or sparsely isolated colonies on the inoculum spot as compared to the growth control.

STR[…] EES61 = assay: In vitro antibacterial activity, agar dilution MIC; settings: Streptococcus pyogenes, 24 h
Description: as §1, §2, §3

ESCHERICHIA COLI KNK 437 = assay: microbe, parasite or virus in culture; settings: E. coli KNK 437, BHI agar, 35-37° C., 20 to 24 hours
[4] = test system: KLEBSIELLA PNEUMONIAE ATCC 8045; assay: In vitro antibacterial activity, agar dilution MIC; settings: ATCC8045, K. pneumoniae ATCC 8045, BHI agar, 35-37° C., 20 to 24 hours, read-out: MIC
[5] = test system: STAPHYLOCOCCUS AUREUS NCTC 10649; assay: In vitro antibacterial activity, agar dilution MIC; settings: NCTC10649, 24 h
[6] = test system: STREPTOCOCCUS PYOGENES 2548 INDUC; assay: In vitro antibacterial activity, agar dilution MIC; settings: S. pyogenes 2548 INDUC, BHI agar, 35-37° C., 20 to 24 hours, read-out: MIC
ESCHERICHIA COLI JUHL = assay: microbe, parasite or virus in culture; settings: E. coli JUHL, BHI agar, 35-37° C., 20 to 24 hours, read-out: MIC
[7] = test system: STAPHYLOCOCCUS EPIDERMIDIS 3519; assay: microbe, parasite or virus in culture; settings: 24 h
STAPHYLOCOCCUS AUREUS 45 = assay: In vitro antibacterial activity, agar dilution MIC; settings: 24 h
[8] = test system: STAPHYLOCOCCUS AUREUS 1775; assay: In vitro antibacterial activity, agar dilution MIC; settings: S. aureus 1775, BHI agar, 35-37° C., 20 to 24 hours, read-out: MIC
[9] = test system: PSEUDOMONAS AERUGINOSA A5007; assay: In vitro antibacterial activity, agar dilution MIC; settings: P. aeruginosa A5007, BHI agar, 35-37° C., 20 to 24 hours
[10] = test system: PROVIDENCIA STUARTII CMX 640; assay: microbe, parasite or virus in culture; settings: P. stuartii CMX 640, BHI agar, 35-37° C., 20 to 24 hours
[11] = test system: STAPHYLOCOCCUS AUREUS ATCC 6538P; assay: In vitro antibacterial activity, agar dilution MIC; settings: ATCC6538P, 24 h
[12] = test system: ENTEROBACTER AEROGENES ATCC 13048; assay: In vitro antibacterial activity, agar dilution MIC; settings: Klebsiella aerogenes, ATCC13048; E. aerogenes ATCC 13048; BHI agar, 35-37° C., 20 to 24 hours; read-out: MIC
[13] = test system: STREPTOCOCCUS BOVIS A5169; assay: In vitro antibacterial activity, agar dilution MIC; settings: 24 h
[14] = test system: STAPHYLOCOCCUS AUREUS CMX 553; assay: In vitro antibacterial activity, agar dilution MIC; settings: 24 h
[15] = test system: ACINETOBACTER CALCOACETICUS CMX 669; assay: In vitro antibacterial activity, agar dilution MIC; settings: A. calcoaceticus CMX 669, BHI agar, 35-37° C., 20 to 24 hours
[16] = test system: PSEUDOMONAS AERUGINOSA K799/61; assay: In vitro antibacterial activity, agar dilution MIC; settings: P. aeruginosa K799/61, BHI agar, 35-37° C., 20 to 24 hours, read-out: MIC
Description: as §1, §2
(§4) After incubation, each disk was read. The minimum inhibitory concentration (MIC) was defined as the lowest concentration of drug yielding no growth, a slight haze, or sparsely isolated colonies on the inoculum spot as compared to the growth control. The results of this assay, shown below in Tables 1 and 2, support the conclusion that the compounds of the invention are effective antibacterial agents.

M[…] ATCC 9341 = assay: In vitro antibacterial activity, agar dilution MIC; settings: Micrococcus luteus, ATCC9341, 24 h
Description: as §1, §2, §4

EN[…] ATCC 8043 = assay: In vitro antibacterial activity, agar dilution MIC; settings: Enterococcus faecium, ATCC8043, 24 h
Description: as §1, §2, §4

M[…] ATCC 4698 = assay: In vitro antibacterial activity, agar dilution MIC; settings: Micrococcus luteus, ATCC4698, 24 h
Description: as §1, §2, §4

ESCHERICHIA COLI SS = assay: In vitro antibacterial activity, agar dilution MIC; settings: 24 h
[17] = test system: PSEUDOMONAS AERUGINOSA K799/WT; assay: In vitro antibacterial activity, agar dilution MIC; settings: P. aeruginosa K799/WT, BHI agar, 35-37° C., 20 to 24 hours
[18] = test system: PSEUDOMONAS AERUGINOSA BMH10; assay: In vitro antibacterial activity, agar dilution MIC; settings: P. aeruginosa BMH10, BHI agar, 35-37° C., 20 to 24 hours, read-out: MIC

Compound: CC[C@H]1OC(=O)[C@H](C)[C@@H](O[C@H]2C[C@@](C)(OC)[C@@H](O)[C@H](C)O2)[C@H](C)[C@@H](O[C@@H]2O[C@H](C)C[C@H](N(C)C)[C@H]2O)[C@](C)(O)C[C@@H](C)[C@@H](N(C)C)[C@H](C)[C@@H](O)[C@@]1(O)CO [Compound 10, (9R)-9-deoxo-9-(N,N-dimethylamino)-21-hydroxyerythromycin A]
- MIC [1]: > 100 µg/mL
- MIC [2]: > 100 µg/mL
- MIC (ESCHERICHIA COLI H560): 100 µg/mL (≈ 128 µM)
- MIC (ESCHERICHIA COLI DC-2): > 100 µg/mL
- MIC (PSEUDOMONAS CEPACIA 296I): > 100 µg/mL
- MIC [3]: 25 µg/mL (≈ 32.1 µM)
- MIC (STR[…] 508): 3.1 µg/mL (≈ 3.98 µM)
- MIC (STR[…] EES61): 1.56 µg/mL (≈ 2 µM)
- MIC (ESCHERICHIA COLI KNK 437): > 100 µg/mL
- MIC [4]: > 100 µg/mL
- MIC [5]: 12.5 µg/mL (≈ 16 µM)
- MIC [6]: 100 µg/mL (≈ 128 µM)
- MIC (ESCHERICHIA COLI JUHL): > 100 µg/mL
- MIC [7]: 25 µg/mL (≈ 32.1 µM)
- MIC (STAPHYLOCOCCUS AUREUS 45): 25 µg/mL (≈ 32.1 µM)
- MIC [8]: > 100 µg/mL
- MIC [9]: > 100 µg/mL
- MIC [10]: > 100 µg/mL
- MIC [11]: 25 µg/mL (≈ 32.1 µM)
- MIC [12]: > 100 µg/mL
- MIC [13]: 3.1 µg/mL (≈ 3.98 µM)
- MIC [14]: 25 µg/mL (≈ 32.1 µM)
- MIC [15]: > 100 µg/mL
- MIC [16]: 50 µg/mL (≈ 64.2 µM)
- MIC (M[…] ATCC 9341): 6.2 µg/mL (≈ 7.96 µM)
- MIC (EN[…] ATCC 8043): 12.5 µg/mL (≈ 16 µM)
- MIC (M[…] ATCC 4698): 3.1 µg/mL (≈ 3.98 µM)
- MIC (ESCHERICHIA COLI SS): 1.56 µg/mL (≈ 2 µM)
- MIC [17]: > 100 µg/mL
- MIC [18]: > 100 µg/mL
